Source: PubChem BioAssay AID1963858 (Molecular Pharmacology Branch, DTP, NCI, 2024)

System: HOP-62 multicell spheroids with HUVEC/MSC, viability
Assay: Anticancer human tumor HOP-62 cell line growth inhibition [KRAS2];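 note: viability read after a week of compound exposure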;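 for viability, T/C: 100% = DMSO vehicle-treated spheroids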
Conditions: for IC50: curve of first compound; for viability, T/C: stronger effect = lower value
Summary of the method: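 Combination screen of spheroid viability in tumor-cell co-cultures with endothelial (HUVEC) and mesenchymal stem cell stroma. Each agent was tested in half-log dilutions, topping at clinical Cmax or at 10 microM without a known Cmax.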

[1] = second compound 0.1 µM, first compound 0.0316 µM
[2] = second compound 0.1 µM, first compound 0.1 µM
[3] = second compound 0.1 µM, first compound 0.316 µM
[4] = second compound 0.1 µM, first compound 1 µM
[5] = second compound 0.316 µM, first compound 0.0316 µM
[6] = second compound 0.316 µM, first compound 0.1 µM
[7] = second compound 0.316 µM, first compound 0.316 µM
[8] = second compound 0.316 µM, first compound 1 µM
[9] = second compound 1 µM, first compound 0.0316 µM
[10] = second compound 1 µM, first compound 0.1 µM
[11] = second compound 1 µM, first compound 0.316 µM
[12] = second compound 1 µM, first compound 1 µM
[13] = second compound 3.16 µM, first compound 0.0316 µM
[14] = second compound 3.16 µM, first compound 0.1 µM
[15] = second compound 3.16 µM, first compound 0.316 µM
[16] = second compound 3.16 µM, first compound 1 µM
[17] = second compound 10 µM, first compound 0.0316 µM
[18] = second compound 10 µM, first compound 0.1 µM
[19] = second compound 10 µM, first compound 0.316 µM
[20] = second compound 10 µM, first compound 1 µM
[21] = second compound 0.1 µM, first compound 3.16 µM
[22] = second compound 0.1 µM, first compound 10 µM
[23] = second compound 0.316 µM, first compound 3.16 µM
[24] = second compound 0.316 µM, first compound 10 µM
[25] = second compound 1 µM, first compound 3.16 µM
[26] = second compound 1 µM, first compound 10 µM
[27] = second compound 3.16 µM, first compound 3.16 µM
[28] = second compound 3.16 µM, first compound 10 µM
[29] = second compound 10 µM, first compound 3.16 µM
[30] = second compound 10 µM, first compound 10 µM

Compound `CCN1CCN(Cc2ccc(Nc3ncc(F)c(-c4cc(F)c5nc(C)n(C(C)C)c5c4)n3)nc2)CC1` + COc1cc2nc(C)nc(NC(C)c3cc(N)cc(C(F)(F)F)c3)c2cc1OC1CCOC1 has an IC50 (second compound 0.1 µM) of 911 nM, an IC50 (second compound 0.316 µM) of 979 nM and an IC50 (second compound 1 µM) of 613 nM. For the same compound, the IC50 (second compound 3.16 µM) was 23.2 nM, the IC50 (second compound 10 µM) was less than 3.16 nM and the viability, T/C (second compound 0.1 µM, first compound 0.00316 µM) was 102%. The viability, T/C (second compound 0.1 µM, first compound 0.01 µM) was 97%, the viability, T/C [1] was 84.2% and the viability, T/C [2] was 79.4%. It also gave a viability, T/C [3] of 73.8%, a viability, T/C [4] of 45.6% and a viability, T/C (second compound 0.316 µM, first compound 0.00316 µM) of 101%. For the same compound, the viability, T/C (second compound 0.316 µM, first compound 0.01 µM) was 93.5%, the viability, T/C [5] was 85.6% and the viability, T/C [6] was 69.9%. For the same compound, the viability, T/C [7] was 63.2%, the viability, T/C [8] was 49.2% and the viability, T/C (second compound 1 µM, first compound 0.00316 µM) was 80.8%. For the same compound, the viability, T/C (second compound 1 µM, first compound 0.01 µM) was 74.4%, the viability, T/C [9] was 67.6% and the viability, T/C [10] was 69.9%. The viability, T/C [11] was 49.6%, the viability, T/C [12] was 47.8% and the viability, T/C (second compound 3.16 µM, first compound 0.00316 µM) was 55.5%. For the same compound, the viability, T/C (second compound 3.16 µM, first compound 0.01 µM) was 52.9%, the viability, T/C [13] was 50.6% and the viability, T/C [14] was 41.8%. For the same compound, the viability, T/C [15] was 42.4%, the viability, T/C [16] was 34.8% and the viability, T/C (second compound 10 µM, first compound 0.00316 µM) was 49.9%. It also gave a viability, T/C (second compound 10 µM, first compound 0.01 µM) of 32.2%, a viability, T/C [17] of 24.4% and a viability, T/C [18] of 21.9%. For the same compound, the viability, T/C [19] was 18.5% and the viability, T/C [20] was 0.89%.

In the case of `COc1cc(Nc2ncc3c(n2)-c2ccc(Cl)cc2C(c2c(F)cccc2OC)=NC3)ccc1C(=O)O` + CC1OCC2(CCN(c3cnc(Sc4ccnc(N)c4Cl)c(N)n3)CC2)C1N, the IC50 (second compound 0.1 µM) is reported as 183 nM, the IC50 (second compound 0.316 µM) is reported as 72.8 nM and the IC50 (second compound 1 µM) is reported as less than 31.6 nM. It also gave an IC50 (second compound 3.16 µM) of less than 31.6 nM, an IC50 (second compound 10 µM) of less than 31.6 nM and a viability, T/C [1] of 61.5%. It also gave a viability, T/C [2] of 53.9%, a viability, T/C [3] of 45.7% and a viability, T/C [4] of 39%. It also gave a viability, T/C [21] of 26.9%, a viability, T/C [22] of 20.1% and a viability, T/C [5] of 56%. For the same compound, the viability, T/C [6] was 47.8%, the viability, T/C [7] was 38.5% and the viability, T/C [8] was 31.3%. The viability, T/C [23] was 22%, the viability, T/C [24] was 16.3% and the viability, T/C [9] was 34.6%. For the same compound, the viability, T/C [10] was 29.7%, the viability, T/C [11] was 27.1% and the viability, T/C [12] was 26.1%. It also gave a viability, T/C [25] of 21.1%, a viability, T/C [26] of 15.4% and a viability, T/C [13] of 21.9%. For the same compound, the viability, T/C [14] was 18.9%, the viability, T/C [15] was 22.2% and the viability, T/C [16] was 21.7%. It also gave a viability, T/C [27] of 14.7%, a viability, T/C [28] of 11.4% and a viability, T/C [17] of 22.7%. For the same compound, the viability, T/C [18] was 17.1%, the viability, T/C [19] was 18.4% and the viability, T/C [20] was 17.4%. For the same compound, the viability, T/C [29] was 16.2% and the viability, T/C [30] was 10.7%.

In the case of `COC(=O)c1ccc2c(C(=Nc3ccc(N(C)C(=O)CN4CCN(C)CC4)cc3)c3ccccc3)c(O)[nH]c2c1` + C=CC(=O)N1CCN(c2nc(=O)n(-c3c(C)ccnc3C(C)C)c3nc(-c4c(O)cccc4F)c(F)cc23)C(C)C1, the IC50 (second compound 0.1 µM) is reported as less than 31.6 nM, the IC50 (second compound 0.316 µM) is reported as less than 31.6 nM and the IC50 (second compound 1 µM) is reported as less than 31.6 nM. For the same compound, the IC50 (second compound 3.16 µM) was less than 31.6 nM, the IC50 (second compound 10 µM) was less than 31.6 nM and the viability, T/C [1] was 40.2%. It also gave a viability, T/C [2] of 30.1%, a viability, T/C [3] of 25.5% and a viability, T/C [4] of 23.3%. The viability, T/C [21] was 24.8%, the viability, T/C [22] was 13% and the viability, T/C [5] was 36.4%. The viability, T/C [6] was 29.9%, the viability, T/C [7] was 26.8% and the viability, T/C [8] was 25.7%. The viability, T/C [23] was 21.7%, the viability, T/C [24] was 14.3% and the viability, T/C [9] was 37.2%. For the same compound, the viability, T/C [10] was 32.5%, the viability, T/C [11] was 26.1% and the viability, T/C [12] was 26.9%. It also gave a viability, T/C [25] of 26.7%, a viability, T/C [26] of 2.61% and a viability, T/C [13] of 40.5%. It also gave a viability, T/C [14] of 31.5%, a viability, T/C [15] of 29.9% and a viability, T/C [16] of 27.5%. The viability, T/C [27] was 22.7%, the viability, T/C [28] was 2.66% and the viability, T/C [17] was 47%. For the same compound, the viability, T/C [18] was 36.2%, the viability, T/C [19] was 55.4% and the viability, T/C [20] was 30.9%. The viability, T/C [29] was 10.2% and the viability, T/C [30] was 1.93%.
